Data as given in patent publication EP3359195B1 (AB Science, priority 2015, dated 2017).
Where two headings read alike, the source gives them in different places.

How the values were obtained:
mastocytosis = details: cited from earlier work; for major response: more than 50% improvement in symptoms and signs; for overall response rate: sum of CR, MR and PR
[1] = test system: Ba/F3 cells expressing human or mouse wild-type c-Kit; details: read-out: IC50, stem cell factor-induced proliferation and c-Kit tyrosine phosphorylation; cited from earlier work
[2] = test system: severe systemic mastocytosis; assay: post-hoc analysis of pooled phase 2 studies AB06013 and AB04010, cohort simulating severe systemic mastocytosis; assay type: in vivo, human; details: for Cumulative response rate (≥75 %) from W8 to W24, Hamilton or FIS / Cumulative response rate (≥75 %) from W8 to W24, Flushes or Pruritus: 2-handicap response rate; for Cumulative response rate (≥75 %) from W8 to W24, Hamilton or FIS: at least one handicap from [Hamilton or FIS]; for Cumulative response rate (≥75 %) from W8 to W24, Flushes or Pruritus: at least one handicap from [flushes or pruritus]
[3] = test system: Ba/F3 cells expressing the D816V c-Kit mutation; details: read-out: IC50, proliferation; cited from earlier work
[4] = entire evaluable study population (N=80)
[5] = missing data considered as failure (observed cases after W12)

In the case of NC(=O)NO [hydroxyurea], the major response (mastocytosis; [4]) is given as 0%, the overall response rate (mastocytosis; [4]) is given as 19% and the overall response rate (mastocytosis; patients with ISM (N=22)) is given as 0%.

For Nc1nc(Cl)nc2c1ncn2[C@H]1C[C@H](O)[C@@H](CO)O1 [Cladribine], the major response (mastocytosis; [4]) is listed as 37%, the overall response rate (mastocytosis; [4]) is listed as 55% and the overall response rate (mastocytosis; patients with ISM (N=22)) is listed as 56%.

For Cc1ccc(NC(=O)c2ccc(CN3CCN(C)CC3)cc2)cc1Nc1nc(-c2cccnc2)cs1 [masitinib, 4-(4-methylpiperazin-1-ylmethyl)-N-[4-methyl-3-(4-pyridin-3ylthiazol-2-ylamino)phenyl]benzamide], the IC50 [1] is listed as 150 ± 80 nM, the “Cumulative response rate (≥75 %) from W8 to W24, Hamilton or FIS” value [2] is listed as roughly 10% and the “Cumulative response rate (≥75 %) from W8 to W24, Hamilton or FIS” value ([2]; listed as Masitinib) is listed as 10.3%. For the same compound, the “Cumulative response rate (≥75 %) from W8 to W24, Flushes or Pruritus” value [2] was “approximately 40%”, the “Cumulative response rate (≥75 %) from W8 to W24, Flushes or Pruritus” value ([2]; listed as Masitinib) was 38.8% and the “Overall response ≥ 75%” value ([2]; Week 12, at least one severe handicap among pruritus, flushes, fatigue or depression at baseline, missing data considered as failure, listed as Masitinib) was 25.0%. The “Overall response ≥ 75%” value ([2]; Week 12, patients with both pruritus score ≥9 and flushes per week ≥8 at baseline (4 patients, 8 handicaps)) was 1/8 (12.5%), the “Overall response ≥ 75%” value ([2]; Week 24, at least one severe handicap among pruritus, flushes, fatigue or depression at baseline, missing data considered as failure) was 23.5% and the “Overall response ≥ 75%” value ([2]; Week 24, at least one severe handicap among pruritus, flushes, fatigue or depression at baseline, missing data considered as failure, listed as Masitinib) was 23.5%. The “Overall response ≥ 75%” value ([2]; Week 24, patients with both pruritus score ≥9 and flushes per week ≥8 at baseline (4 patients, 8 handicaps)) was 50%, the “Cumulative response rate (≥75 %) from W8 to W24, Overall Response” value ([2]; at least one handicap among pruritus, flushes, fatigue or depression, W8, W12, W24) was 26.1% and the “Cumulative response rate (≥75 %) from W8 to W24, FIS only” value [2, 5] was 8.0%. The “Cumulative response rate (≥75 %) from W8 to W24, Flushes only” value [2, 5] was 52.8%, the “Cumulative response rate (≥75 %) from W8 to W24, Hamilton only” value [2, 5] was 16.7% and the “Cumulative response rate (≥75 %) from W8 to W24, Micturition frequency (pollakiuria) only” value [2, 5] was 1.8%. For the same compound, the “Cumulative response rate (≥75 %) from W8 to W24, Pruritus only” value [2, 5] was 28.6%, the “Cumulative response rate (≥75 %) from W8 to W24, Stool frequency (diarrhea) only” value [2, 5] was 18.4% and the IC50 [3] was 5 ± 2 µM.

In the case of Cc1ccc(NC(=O)c2ccc(CN3CCN(C)CC3)cc2)cc1Nc1nccc(-c2cccnc2)n1 [imatinib mesilate], the major response (mastocytosis; [4]) is given as 9%, the overall response rate (mastocytosis; [4]) is given as 18% and the overall response rate (mastocytosis; patients with ISM (N=22)) is given as 14%.
